Structures are written as SMILES.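 Where inhibition never reached the appropriate level, the endpoint shown equals the highest concentration tested. Otherwise, values were interpolated linearly from a five-concentration, 48-hour dose response in 96-well plates. GI50 is the concentration that inhibits growth by half. TGI: total growth inhibition.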

Test systems include 786-0 renal; MOLT-4 leukemia; NCI-H23 lung; HOP-92 NSCLC; SNB-75 CNS; SK-MEL-28 melanoma; MDA-MB-231 breast; UO-31 renal; HCT-116 colon; LOX IMVI melanoma.
Holding throughout (assay): NCI tumour cell line growth inhibition, 48 h

With `O=C(O)/C=C\C(=O)N1C/C(=C\c2ccccc2Cl)C(=O)/C(=C/c2ccccc2Cl)C1`, the GI50 is 2.18 µM in the experiment on 786-0 renal; 3.06 µM in the experiment on MOLT-4 leukemia; 2.5 µM in the experiment on NCI-H23 lung; 4.43 µM in the experiment on HOP-92 NSCLC; 3.8 µM with SNB-75 CNS; 2.88 µM in the experiment with SK-MEL-28 melanoma. The GI50 in the experiment on MDA-MB-231 breast was 3.52 µM; with UO-31 renal it was 1.98 µM; with HCT-116 colon, 1.6 µM; with LOX IMVI melanoma, 1.56 µM. The TGI in the experiment with 786-0 renal stood at 4.06 µM; with MOLT-4 leukemia, 11.2 µM; in the experiment on NCI-H23 lung, 6.41 µM; in the experiment with HOP-92 NSCLC it was 15.5 µM; in the experiment with SNB-75 CNS, 14 µM; with SK-MEL-28 melanoma it was 9.09 µM. Moreover, the TGI in the experiment on MDA-MB-231 breast turned out to be 11.5 µM; with UO-31 renal it was 3.72 µM; with HCT-116 colon it was 3.45 µM; in the experiment on LOX IMVI melanoma, 3.71 µM.

Consider `CC1OC(O[C@@H]2OC=C(C=O)[C@@]3(O)CC[C@H](C)[C@@H]23)C(O)C(O)C1O` (some centres undefined), for which the TGI in the experiment with 786-0 renal, in the experiment on MOLT-4 leukemia, in the experiment on NCI-H23 lung, in the experiment with HOP-92 NSCLC, with SNB-75 CNS and with SK-MEL-28 melanoma was more than 100 µM each time. In addition, the TGI in the experiment on MDA-MB-231 breast, in the experiment with UO-31 renal, in the experiment with HCT-116 colon and in the experiment on LOX IMVI melanoma was more than 100 µM each time.

For `COC(=O)[C@@]1(C)CC[C@]2(C)CC[C@]3(C)C4=CC=C5C(=CC(=O)C(O)=C5C)[C@]4(C)[C@@H](O)C[C@@]3(C)[C@@H]2C1`, the GI50 is 1.79 µM with 786-0 renal; 3.18 µM in the experiment with MOLT-4 leukemia; 13.5 µM in the experiment with NCI-H23 lung; 11.6 µM in the experiment on HOP-92 NSCLC; 11.6 µM in the experiment with SNB-75 CNS; 9.43 µM with SK-MEL-28 melanoma. Moreover, the GI50 is 10.2 µM in the experiment with MDA-MB-231 breast, 5.8 µM in the experiment with UO-31 renal, 3.67 µM with HCT-116 colon and 10.4 µM in the experiment with LOX IMVI melanoma. For the same compound, the TGI was found to be 5.23 µM in the experiment on 786-0 renal; 20.1 µM with MOLT-4 leukemia; 28.4 µM in the experiment with NCI-H23 lung; 23.2 µM with HOP-92 NSCLC; 26 µM in the experiment with SNB-75 CNS; 19.7 µM in the experiment on SK-MEL-28 melanoma. Also, the TGI with MDA-MB-231 breast was determined as 21.8 µM; with UO-31 renal, 16.2 µM; with HCT-116 colon it was 14.3 µM; with LOX IMVI melanoma, 21.3 µM.

Consider `CC(C)c1cc(-c2n[nH]c(=O)n2-c2ccc3c(ccn3C)c2)c(O)cc1O`, for which the GI50 with 786-0 renal is 0.0686 µM; with MOLT-4 leukemia it was less than 0.0177 µM; in the experiment with NCI-H23 lung, 0.0247 µM; with HOP-92 NSCLC, less than 0.0169 µM; with SNB-75 CNS it was 1.58 µM; in the experiment on SK-MEL-28 melanoma it was less than 0.0215 µM. Moreover, the GI50 was less than 0.023 µM in the experiment with MDA-MB-231 breast, less than 0.0218 µM in the experiment on UO-31 renal, less than 0.0141 µM with HCT-116 colon and 0.0238 µM with LOX IMVI melanoma. In addition, the TGI with 786-0 renal is 45.4 µM; in the experiment on NCI-H23 lung, 26.7 µM; with HOP-92 NSCLC, 0.0484 µM; in the experiment with SNB-75 CNS it was 97.7 µM; in the experiment on SK-MEL-28 melanoma, 17.2 µM; with MDA-MB-231 breast, 7.52 µM. For the same compound, the TGI in the experiment with UO-31 renal was more than 65.2 µM; with HCT-116 colon, 13.5 µM; with LOX IMVI melanoma it was 0.0661 µM.

As to `NCCOCCOCCNc1nc(Cc2ccccc2)nc(NCCCN2CCCC2=O)n1`, the GI50 in the experiment on 786-0 renal, in the experiment on MOLT-4 leukemia, in the experiment on NCI-H23 lung, in the experiment with HOP-92 NSCLC, in the experiment on SNB-75 CNS and in the experiment with SK-MEL-28 melanoma was more than 100 µM each time. Further, the GI50 with MDA-MB-231 breast, in the experiment on UO-31 renal, in the experiment on HCT-116 colon and with LOX IMVI melanoma was more than 100 µM throughout. The TGI in the experiment with 786-0 renal, with MOLT-4 leukemia, in the experiment with NCI-H23 lung, in the experiment on HOP-92 NSCLC, in the experiment with SNB-75 CNS and with SK-MEL-28 melanoma was more than 100 µM each time. Moreover, the TGI in the experiment with MDA-MB-231 breast, in the experiment on UO-31 renal, in the experiment with HCT-116 colon and in the experiment on LOX IMVI melanoma was more than 100 µM throughout.

With `NCCn1c(=O)[nH]c(=O)[nH]c1=S`, the GI50 with 786-0 renal, in the experiment on MOLT-4 leukemia, in the experiment on NCI-H23 lung, in the experiment with HOP-92 NSCLC, in the experiment with SNB-75 CNS and in the experiment on SK-MEL-28 melanoma was more than 100 µM each time. Moreover, the GI50 with MDA-MB-231 breast, in the experiment with UO-31 renal, in the experiment with HCT-116 colon and in the experiment on LOX IMVI melanoma was more than 100 µM in each case. Besides, the TGI with 786-0 renal, in the experiment on MOLT-4 leukemia, with NCI-H23 lung, with HOP-92 NSCLC, with SNB-75 CNS and in the experiment on SK-MEL-28 melanoma was more than 100 µM throughout. Besides, the TGI with MDA-MB-231 breast, in the experiment with UO-31 renal, in the experiment with HCT-116 colon and with LOX IMVI melanoma was more than 100 µM throughout.
